Experimental data as given in patent US9776979B2, “EBI2 modulators” (Sanford-Burnham Medical Research Institute, priority 2013, dated 2017).

Each compound was assayed against EBI2 (Homo sapiens, UniProt P32249) (assay: Cell-based luminescent assay (EBI2 modulation)). Conditions: not given.
Chain of EBI2 (P32249 whole entry): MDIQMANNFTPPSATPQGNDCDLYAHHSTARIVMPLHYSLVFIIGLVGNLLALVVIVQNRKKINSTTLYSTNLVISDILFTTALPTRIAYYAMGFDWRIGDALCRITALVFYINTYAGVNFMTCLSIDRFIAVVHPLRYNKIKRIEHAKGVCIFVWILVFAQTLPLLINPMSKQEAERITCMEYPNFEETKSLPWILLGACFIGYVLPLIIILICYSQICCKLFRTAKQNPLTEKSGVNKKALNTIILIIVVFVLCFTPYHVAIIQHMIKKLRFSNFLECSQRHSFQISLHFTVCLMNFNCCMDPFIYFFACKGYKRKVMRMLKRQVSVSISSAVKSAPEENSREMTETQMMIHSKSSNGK
Experimental: Cell-Based Luminescent Assay
To assess EBI2 modulation, the compounds described herein were assayed in the following cell-based luminescent assay:
1) Plated 600 cells/well in 4 uL of assay media into columns 1-48 of a 1536-well assay plate, using a liquid dispenser.
2) Centrifuged plates at 1000 rpm for 1 minute and covered with lids.
3) Incubated overnight at 37° C., 100% relative humidity, 5% CO2.
1) Centrifuged compound plates containing compounds described herein at 500 rpm for 1 minute.
2) Added compounds into assay plate col 5-48 to final concentration 4-5 uM. Added matching amount of DMSO to positive and negative control wells in columns 1-4.
3) Dispensed 2 ul/well of assay media to columns 1-2 for the positive control wells.
4) Added 2 ul/well of 400 nM 7a,25-OHC (final assay concentration=80 nM) in assay media to columns 3-48 for the negative control and test compound wells.
5) Centrifuged plates at 1000 rpm for 1 minute and re-lid plates.
6) Incubated plates at 37° C., 100% relative humidity, 5% CO2 for 60 minutes.
7) Following 60 minute incubation, delivered 2.5 uL of Detection Reagent solution to each assay plate (Columns 1-48) using a liquid handler.
8) Centrifuged plates at 2000 rpm for 2 minutes and re-lid plates.
9) Incubated plates for 60 minutes at 25 degrees in the dark.
10) Read plates using the Viewlux, Envision or other suitable plate reader using a luminescence detection.
The experimental values were normalized by the difference between values from neutral and stimulator control wells in each plate. Then normalized data was corrected to remove systematic plate patterns due to artifacts such as dispensing tip issues etc.
With `O=C(/C=C/c1ccc(Br)cc1)N1CCC(Nc2ccccc2)CC1` [Compound C13, (2E)-3-(4-bromophenyl)-1-[4-(phenylamino)piperidyl]prop-2-en-1-one] the IC50 was under 100 nM.
`O=C(/C=C/c1ccc(Br)cc1)N1CCC(Nc2cc(F)cc(F)c2)CC1` [Compound C15, (2E)-1-{4-[(3,5-difluorophenyl)amino]piperidyl}-3-(4-bromophenyl)prop-2-en-1-one] was tested, and the IC50 was under 100 nM.

Same assay, conditions: cell-based luminescence; 7a,25-OHC final assay concentration 80 nM; 60 minutes incubation; read-out: IC50
For “4-[(3,5-dimethylphenyl)methyl]piperazinyl 5-methylindol-2-yl ketone [Compound C359]”, the IC50 was 100 to 500 nM.
Compound “4-[(4-bromophenyl)sulfonyl]piperazinyl 5-chloroindol-2-yl ketone [Compound C333]” has an IC50 of under 100 nM.
In the case of “4-[(4-bromophenyl)sulfonyl]piperazinyl 5-methylindol-2-yl ketone [Compound C143]”, the IC50 is reported as under 100 nM.
With “4-[(4-chlorophenyl)carbonyl]piperazinyl 5-(trifluoromethyl)indol-2-yl ketone [Compound C64]” the IC50 was under 100 nM.
With “4-[(4-chlorophenyl)methyl]piperazinyl 2-(trifluoromethyl)benzimidazol-5-yl ketone [Compound C170]” the IC50 was 500 to 5000 nM.
For “4-bromophenyl 4-{[4-(methylethyl)phenyl]methyl}piperazinyl ketone [Compound C176]”, the IC50 was 500 to 5000 nM.
“4-{3-[4-(diphenylmethyl)piperazinyl]-3-oxoprop-1-ynyl}benzenecarbonitrile [Compound C326]” was tested, and the IC50 was under 100 nM.
With “4-{[2-fluoro-4-(trifluoromethyl)phenyl]carbonyl}piperazinyl 5-(trifluoromethyl)indol-2-yl ketone [Compound C360]” the IC50 was under 100 nM.
Compound “4-{[3,5-bis(trifluoromethyl)phenyl]carbonyl}piperazinyl 5-(trifluoromethyl)indol-2-yl ketone [Compound C330]” has an IC50 of under 100 nM.
Compound “4-{[3-fluoro-4-(trifluoromethyl)phenyl]methyl}piperazinyl 5-(trifluoromethyl)indol-2-yl ketone [Compound C389]” has an IC50 of under 100 nM.
Compound “4-{[4-((2E)-3-phenylprop-2-enoyl)piperazinyl]methyl}benzenecarbonitrile [Compound C335]” has an IC50 of under 100 nM.
“4-{[4-fluoro-2-(trifluoromethyl)phenyl]methyl}piperazinyl 5-(trifluoromethyl)indol-2-yl ketone [Compound C418]” gave an IC50 of 100 to 500 nM.
For “4-{[4-fluoro-3-(trifluoromethyl)phenyl]methyl}piperazinyl 5-(trifluoromethyl)indol-2-yl ketone [Compound C415]”, the IC50 was 100 to 500 nM.
In the case of “4-{[(4-bromophenyl)sulfonyl]amino}piperidyl 5-chloroindol-2-yl ketone [Compound C306]”, the IC50 is reported as under 100 nM.
In the case of “5-bromoindol-2-yl 4-[(4-chlorophenyl)carbonyl]piperazinyl ketone [Compound C85]”, the IC50 is reported as under 100 nM.
“5-bromoindol-2-yl 4-[(4-chlorophenyl)methyl]piperazinyl ketone [Compound C303]” showed an IC50 of under 100 nM.
“5-chloroindol-2-yl 4-[(4-(3-pyridyl)phenyl)carbonyl]piperazinyl ketone [Compound C254]” gave an IC50 of under 100 nM.
“5-chloroindol-2-yl 4-{[4-(4-chlorophenyl)phenyl]sulfonyl}piperazinyl ketone [Compound C172]” was tested, and the IC50 was 500 to 5000 nM.
With “5-methylindol-2-yl 4-(3-pyridylmethyl)piperazinyl ketone [Compound C458]” the IC50 was 100 to 500 nM.
Compound “5-methylindol-2-yl 4-(phenylethyl)piperazinyl ketone [Compound C148]” has an IC50 of under 100 nM.
For “5-methylindol-2-yl 4-benzylpiperazinyl ketone [Compound C376]”, the IC50 was under 100 nM.
“6-bromoindol-2-yl 4-[(4-chlorophenyl)carbonyl]piperazinyl ketone [Compound C239]” showed an IC50 of under 100 nM.
With “6-bromoindol-2-yl 4-[(4-chlorophenyl)methyl]piperazinyl ketone [Compound C471]” the IC50 was 100 to 500 nM.
“6-fluoroindol-2-yl 4-[(4-fluorophenyl)carbonyl]piperazinyl ketone [Compound C425]” showed an IC50 of 100 to 500 nM.
`O=C(/C=C/c1ccc(Br)cc1)N1CCN(C(=O)c2ccc(Cl)cc2)CC1` [Compound C1, (E)-3-(4-bromophenyl)-1-(4-(4-chlorobenzoyl)piperazin-1-yl) prop-2-en-1-one] was tested, and the IC50 was under 100 nM.
`O=C(/C=C/c1ccc(Br)cc1)N1CCN(C(=O)c2ccc(P(=O)(O)O)cc2)CC1` [Compound C3, (E)-(4-(4-(3-(4-bromophenyl)acryloyl)piperazine-1-carbonyl)phenyl)phosphonic acid] was tested, and the IC50 was under 100 nM.
With `Cc1ccc(C(=O)N2CCN(C(=O)/C=C/c3ccc(Br)cc3)CC2)cc1` [Compound C4, (2E)-3-(4-bromophenyl)-1-{4-[(4-methylphenyl)carbonyl]piperazinyl} prop-2-en-1-one] the IC50 was under 100 nM.
With `O=C(/C=C/c1ccc(Cl)c(Cl)c1)N1CCN(C(c2ccccc2)c2ccccc2)CC1` [Compound C5, (2E)-3-(3,4-dichlorophenyl)-1-[4-(diphenylmethyl)piperazinyl] prop-2-en-1-one] the IC50 was under 100 nM.
`O=C(/C=C/c1ccc(Cl)c(Cl)c1)N1CCN(C(=O)c2ccc(C(F)(F)F)cc2)CC1` [Compound C6, (2E)-3-(3,4-dichlorophenyl)-1-(4-{[4-(trifluoromethyl)phenyl]carbonyl}piperazinyl) prop-2-en-1-one] showed an IC50 of under 100 nM.
With `COc1ccc(C(=O)N2CCN(C(=O)C#Cc3ccc(Cl)cc3)CC2)cc1` [Compound C7, 3-(4-chlorophenyl)-1-{4-[(4-methoxyphenyl)carbonyl]piperazinyl}prop-2-yn-1-one] the IC50 was under 100 nM.
`COc1ccc(C(=O)N2CCN(C(=O)C#Cc3ccc(C)cc3)CC2)cc1` [Compound C8, 1-{4-[(4-methoxyphenyl)carbonyl]piperazinyl}-3-(4-methylphenyl)prop-2-yn-1-one] gave an IC50 of under 100 nM.
`COc1ccc(C(=O)N2CCN(C(=O)C#Cc3ccc(C(F)(F)F)cc3)CC2)cc1` [Compound C9, 1-{4-[(4-methoxyphenyl)carbonyl]piperazinyl}-3-[4-(trifluoromethyl)phenyl]prop-2-yn-1-one] showed an IC50 of under 100 nM.
With `COc1ccc(C(=O)N2CCN(C(=O)C#Cc3ccc(Br)cc3)CC2)cc1` [Compound C10, 3-(4-bromophenyl)-1-{4-[(4-methoxyphenyl)carbonyl]piperazinyl}prop-2-yn-1-one] the IC50 was under 100 nM.
`COc1ccc(C(=O)N2CCN(C(=O)C=Cc3ccc(Cl)c(Cl)c3)CC2)cc1` [Compound C11, 3-(3,4-dichlorophenyl)-1-{4-[(4-methoxyphenyl)carbonyl]piperazinyl}prop-2-en-1-one] was tested, and the IC50 was under 100 nM.
For `COc1ccc(C(=O)N2CCN(C(=O)C#Cc3ccc(Cl)c(Cl)c3)CC2)cc1` [Compound C12, 3-(3,4-dichlorophenyl)-1-{4-[(4-methoxyphenyl)carbonyl]piperazinyl}prop-2-yn-1-one], the IC50 was under 100 nM.
Work on `O=C(/C=C/c1ccc(Br)cc1)N1CCN(C(=O)c2ccccc2)CC1` [Compound C14, (2E)-3-(4-bromophenyl)-1-[4-(phenylcarbonyl)piperazinyl]prop-2-en-1-one] yielded an IC50 of under 100 nM.
`O=C(C#Cc1ccc(Cl)cc1)N1CCN(C(=O)c2ccc(Cl)cc2)CC1` [Compound C16, 3-(4-chlorophenyl)-1-{4-[(4-chlorophenyl)carbonyl]piperazinyl}prop-2-yn-1-one] showed an IC50 of under 100 nM.
Compound `COc1ccc(/C=C/C(=O)N2CCN(C(c3ccccc3)c3ccccc3)CC2)cc1` [Compound C17, (2E)-1-[4-(diphenylmethyl)piperazinyl]-3-(4-methoxyphenyl)prop-2-en-1-one] has an IC50 of under 100 nM.
`O=C(C#Cc1cccc(Cl)c1Cl)N1CCN(C(=O)c2ccc(F)cc2)CC1` [Compound C18, 3-(2,3-dichlorophenyl)-1-{4-[(4-fluorophenyl)carbonyl]piperazinyl}prop-2-yn-1-one] gave an IC50 of under 100 nM.
`O=C(/C=C/c1ccc(Cl)c(Cl)c1)N1CCN(C(=O)c2ccc(F)cc2)CC1` [Compound C20, (2E)-3-(3,4-dichlorophenyl)-1-{4-[(4-fluorophenyl)carbonyl]piperazinyl}prop-2-en-1-one] gave an IC50 of under 100 nM.
`CCOc1ccc(/C=C/C(=O)N2CCN(C(c3ccccc3)c3ccccc3)CC2)cc1` [Compound C21, (2E)-1-[4-(diphenylmethyl)piperazinyl]-3-(4-ethoxyphenyl)prop-2-en-1-one] showed an IC50 of under 100 nM.
Work on `O=C(/C=C/c1ccc(F)cc1)N1CCN(S(=O)(=O)C2=Cc3ccccc3CC2)CC1` [Compound C22, (2E)-1-[4-(2-3,4-dihydronaphthylsulfonyl)piperazinyl]-3-(4-fluorophenyl)prop-2-en-1-one] yielded an IC50 of under 100 nM.
`O=C(/C=C/c1ccc(Cl)c(Cl)c1)N1CCN(C(=O)c2ccc(Cl)cc2)CC1` [Compound C23, (2E)-3-(3,4-dichlorophenyl)-1-{4-[(4-chlorophenyl)carbonyl]piperazinyl}prop-2-en-1-one] gave an IC50 of under 100 nM.
For `O=C(C#Cc1ccc(Cl)cc1)N1CCN(C(=O)c2ccc(F)cc2)CC1` [Compound C28, 3-(4-chlorophenyl)-1-{4-[(4-fluorophenyl)carbonyl]piperazinyl}prop-2-yn-1-one], the IC50 was under 100 nM.
